The source of these data is ChEMBL document CHEMBL1201862, “PubChem BioAssay data set” (2004).

The structures appear in SMILES notation. Activity calls are given as the source filed them.

Experiment [1] concerns the target T1, Melanocortin receptor 4 (Homo sapiens, UniProt P32245). Type of experiment: functional, cell-based.
A further experiment deals with Cytochrome P450 3A4 (Homo sapiens, UniProt P08684).
Experiment [2] addresses T2, Apoptotic protease-activating factor 1 (Homo sapiens, UniProt O14727).
T2 sequence (O14727 whole entry): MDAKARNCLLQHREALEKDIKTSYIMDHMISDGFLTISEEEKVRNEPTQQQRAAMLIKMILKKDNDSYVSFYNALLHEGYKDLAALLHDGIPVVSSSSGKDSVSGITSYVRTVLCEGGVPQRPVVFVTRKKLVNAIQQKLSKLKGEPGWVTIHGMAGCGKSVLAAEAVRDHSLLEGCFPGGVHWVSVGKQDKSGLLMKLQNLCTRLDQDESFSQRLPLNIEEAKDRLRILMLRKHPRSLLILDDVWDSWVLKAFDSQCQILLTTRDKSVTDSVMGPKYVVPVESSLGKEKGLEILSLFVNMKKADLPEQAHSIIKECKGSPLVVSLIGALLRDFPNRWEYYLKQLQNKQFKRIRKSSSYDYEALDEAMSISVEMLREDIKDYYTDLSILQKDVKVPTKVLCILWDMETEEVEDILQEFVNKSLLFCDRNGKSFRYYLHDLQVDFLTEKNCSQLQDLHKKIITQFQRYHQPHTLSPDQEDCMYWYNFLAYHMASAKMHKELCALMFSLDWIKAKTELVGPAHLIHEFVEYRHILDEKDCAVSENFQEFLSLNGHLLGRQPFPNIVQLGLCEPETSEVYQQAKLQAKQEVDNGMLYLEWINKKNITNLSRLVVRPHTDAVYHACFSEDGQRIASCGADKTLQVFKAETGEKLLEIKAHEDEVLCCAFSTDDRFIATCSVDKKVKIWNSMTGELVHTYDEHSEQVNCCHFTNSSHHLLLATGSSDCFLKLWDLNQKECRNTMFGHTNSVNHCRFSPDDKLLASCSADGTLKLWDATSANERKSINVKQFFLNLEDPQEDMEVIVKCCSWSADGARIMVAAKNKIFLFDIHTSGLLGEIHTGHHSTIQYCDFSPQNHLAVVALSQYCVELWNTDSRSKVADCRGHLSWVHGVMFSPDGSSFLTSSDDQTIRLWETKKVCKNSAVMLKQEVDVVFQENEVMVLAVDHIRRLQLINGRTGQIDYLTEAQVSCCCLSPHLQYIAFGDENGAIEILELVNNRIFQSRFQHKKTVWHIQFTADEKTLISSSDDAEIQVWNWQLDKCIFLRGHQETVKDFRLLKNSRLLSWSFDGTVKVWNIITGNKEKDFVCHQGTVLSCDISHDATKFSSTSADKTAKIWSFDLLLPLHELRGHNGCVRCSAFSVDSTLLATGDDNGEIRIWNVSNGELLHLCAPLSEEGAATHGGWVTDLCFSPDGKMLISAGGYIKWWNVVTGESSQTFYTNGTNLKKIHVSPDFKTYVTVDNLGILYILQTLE
The class given is functional.

The target in experiment [3] is T3, Corticotropin-releasing factor receptor 2/Corticotropin-releasing factor-binding protein (Homo sapiens, UniProt P24387+Q13324).
T3 sequence (Q13324 whole entry): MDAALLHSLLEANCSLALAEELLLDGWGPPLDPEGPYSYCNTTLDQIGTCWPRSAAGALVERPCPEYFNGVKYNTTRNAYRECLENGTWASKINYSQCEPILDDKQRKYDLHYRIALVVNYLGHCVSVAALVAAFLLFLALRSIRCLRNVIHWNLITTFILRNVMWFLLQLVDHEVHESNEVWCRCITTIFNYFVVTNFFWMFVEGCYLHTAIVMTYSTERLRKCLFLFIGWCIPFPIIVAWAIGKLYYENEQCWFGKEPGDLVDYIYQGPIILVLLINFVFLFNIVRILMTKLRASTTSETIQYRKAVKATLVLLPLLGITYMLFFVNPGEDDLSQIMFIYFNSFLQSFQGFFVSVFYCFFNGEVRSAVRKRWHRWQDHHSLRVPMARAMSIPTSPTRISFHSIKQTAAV
T3 sequence (P24387 whole entry): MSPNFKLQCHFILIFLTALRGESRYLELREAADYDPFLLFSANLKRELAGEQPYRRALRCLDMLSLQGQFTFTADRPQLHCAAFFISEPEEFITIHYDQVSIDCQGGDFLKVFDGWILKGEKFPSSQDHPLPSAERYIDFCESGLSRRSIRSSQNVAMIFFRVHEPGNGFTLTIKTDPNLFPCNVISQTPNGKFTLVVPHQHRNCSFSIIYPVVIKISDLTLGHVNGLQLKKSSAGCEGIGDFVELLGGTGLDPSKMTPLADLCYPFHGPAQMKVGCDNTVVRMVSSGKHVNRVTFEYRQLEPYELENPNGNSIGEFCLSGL
In words: activators of CRF receptor 2 with binding protein – uHTS hits, confirmation (AID 602473). Type of experiment: functional. The conditions noted are these: read-out: EC50_Mean.

Another experiment relates to Vero. In words: Vero cell cytotoxicity, cytotoxicity control for flavivirus capping enzyme inhibitors (AID 588742). The class given is functional. Conditions: Chlorocebus sabaeus.
A further experiment deals with H9c2. Briefly: cells. Type of experiment: functional, cell-based. Conditions: Rattus norvegicus, H9c2, Myocardium.
The next experiment addresses Genome polyprotein (dengue virus type 2, UniProt P29990). Briefly: Dengue-2 NS5 methyltransferase inhibitors, primary screen, biochemical, confirmation dose response (AID 588689). The class given is functional.
The target in a further experiment is T4, Protein skinhead-1 (Caenorhabditis elegans, UniProt P34707).
T4 sequence (P34707 whole entry): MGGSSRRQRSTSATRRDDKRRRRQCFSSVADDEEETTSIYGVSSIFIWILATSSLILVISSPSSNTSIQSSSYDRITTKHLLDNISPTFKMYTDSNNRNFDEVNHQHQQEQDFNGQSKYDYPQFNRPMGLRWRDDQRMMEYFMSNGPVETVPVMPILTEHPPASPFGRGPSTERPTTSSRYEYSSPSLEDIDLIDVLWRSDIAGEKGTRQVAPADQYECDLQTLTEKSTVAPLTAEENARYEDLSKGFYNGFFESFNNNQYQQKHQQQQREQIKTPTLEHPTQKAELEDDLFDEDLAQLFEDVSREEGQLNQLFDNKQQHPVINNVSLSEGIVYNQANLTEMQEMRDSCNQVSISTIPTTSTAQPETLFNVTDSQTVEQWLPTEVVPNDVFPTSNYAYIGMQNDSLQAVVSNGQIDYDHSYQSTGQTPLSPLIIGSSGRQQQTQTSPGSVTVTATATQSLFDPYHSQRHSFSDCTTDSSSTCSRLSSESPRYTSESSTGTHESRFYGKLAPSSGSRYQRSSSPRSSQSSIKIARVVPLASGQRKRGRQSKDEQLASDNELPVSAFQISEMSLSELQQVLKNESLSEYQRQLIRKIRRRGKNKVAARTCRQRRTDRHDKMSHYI
The class given is functional.

Experiment [4] can be described thus: Luminescence Cell-Based Dose Confirmation HTS to Identify Activators of 5'UTR Stem-Loop Driven Alpha-Synuclein mRNA Translation in H4 Neuroglioblastoma Cells. [Related pubchem assays: 1829 (Project Summary), 1814 (Primary HTS)]. Type of experiment: functional.
Experiment [5] is described as follows: Luminescence Cell-Based Dose Response HTS to Identify Activators of Luciferase Translation or Activity in H4 […] Cells. [Related pubchem assays: 1829 (Project Summary), 1814 (Primary HTS)]. The class given is functional.
Another experiment concerns H4. In words: Luminescence Cell-Based Dose Response HTS to Identify Activators of 5'UTR Stem-Loop Driven Prion Protein mRNA Translation in H4 Neuroglioblastoma Cells. [Related pubchem assays: 1829 (Project Summary), 1814 (Primary HTS)]. The class given is functional. Conditions: Homo sapiens.
Experiment [6] in a line: THP-1 cell cytotoxicity, cytotoxicity control, set 4 (AID 504911). The conditions noted are these: Mycobacterium tuberculosis. Type of experiment: functional.
Experiment [7] deals with T5, Microphthalmia-associated transcription factor (Homo sapiens, UniProt O75030).
T5 sequence (O75030 whole entry): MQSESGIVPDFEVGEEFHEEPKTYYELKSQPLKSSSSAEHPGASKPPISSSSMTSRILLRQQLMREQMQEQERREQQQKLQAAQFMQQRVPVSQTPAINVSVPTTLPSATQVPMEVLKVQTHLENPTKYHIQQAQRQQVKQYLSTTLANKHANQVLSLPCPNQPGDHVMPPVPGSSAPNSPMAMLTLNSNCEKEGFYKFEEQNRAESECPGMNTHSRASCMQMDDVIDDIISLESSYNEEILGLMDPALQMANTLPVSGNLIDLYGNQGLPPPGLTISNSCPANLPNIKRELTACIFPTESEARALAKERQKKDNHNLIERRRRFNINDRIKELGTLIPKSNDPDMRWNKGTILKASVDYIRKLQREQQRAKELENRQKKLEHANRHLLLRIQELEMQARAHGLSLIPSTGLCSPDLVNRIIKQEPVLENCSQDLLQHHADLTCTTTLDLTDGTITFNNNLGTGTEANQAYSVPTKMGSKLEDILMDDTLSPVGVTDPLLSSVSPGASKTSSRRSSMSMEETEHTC
Briefly: TRPM1 promoter luciferase signal decrease, dose response, MITF inhibitor project, cell-based, SK-MEL-5, cherry-picked, set 3 (AID 493073).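 Also: SK-MEL-5 melanoma cells with luciferase driven by the MITF target TRPM1 promoter.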 The class given is functional.

A further experiment concerns A-375. In words: A375 melanoma cell viability reduction, dose response, counter-screen for MITF modulator project, cherry-pick samples, set 2 (AID 540335). The conditions noted are these: Homo sapiens. The class given is functional, cell-based. In general terms: The purpose of a counterscreen is to sort out artefacts and off-target activity.
Experiment [8] is described as follows: control 3'UTR Renilla luciferase suppression, dose response, counter-screen for Shn3 inhibitor project, cell-based, Clone20-Shn3RL, cherry-picked (AID 624133). The class given is functional.
Experiment [9] can be described thus: Luminescence Cell-Based Dose Retest to Confirm Inhibitors of Cancer Stem Cells. [Related pubchem assays (depositor defined):AID2717, AID2721]. Type of experiment: functional. Conditions: Homo sapiens.
Experiment [10] can be described thus: nonselective inhibitors of cellular cAMP signaling, dose response, counter-screen for MC4R biased antagonist project, cell-based, TR-FRET cAMP detection (AID 602305).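 Also: U2OS cells stimulated with forskolin near its EC80 as the cAMP inducer; potency is for inhibition of forskolin-stimulated cAMP signaling.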 Type of experiment: functional.
Experiment [11] is described as follows: HepG2 cell cytotoxicity, dose response, cytotoxicity control for Shn3 inhibitor project, CellTiter-Glo, cherry-picked (AID 624134). The class given is functional, cell-based. In general terms: ATP-based viability assays read luminescence as a measure of living cells.
A short description of experiment [12]: Shn3 3'UTR reporter inhibitors, dose response, cell-based, Clone20 osteoblasts, firefly luciferase, cherry-picked (AID 624132).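 Also: firefly luciferase luminescence from reporter carrying the Shn3 3'UTR in osteoblasts.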 Type of experiment: functional.
Experiment [13] concerns the target T1, Melanocortin receptor 4. In words: MC4R antagonist potency on cAMP, dose response, cell-based, TR-FRET, biased antagonists (AID 602298).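 Also: antagonist potency against agonist-stimulated cAMP production.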 The class given is functional. (In general: In TR-FRET formats the signal depends on donor and acceptor labels being close together.)
In a further experiment the test system is INS1. Briefly: beta cell apoptosis inhibitors, cytokine rescue, dose response, luminescence, retest (AID 449756).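 Also: cell death triggered by IL-1 beta plus TNF-alpha plus IFN-gamma mixture; protective hits raise ATP signal compared with cytokine alone wells.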 The conditions noted are these: Rattus norvegicus. The class given is functional, cell-based.
The nature of experiment [14]: Fluorescence-based cell-based high throughput dose response assay for inhibitors of the interaction of nucleotide-binding oligomerization domain containing 2 (NOD2) and the receptor-interacting serine-threonine kinase 2 (RIPK2). The class given is functional. The conditions noted are these: Homo sapiens.

T1 sequence (P32245 whole entry): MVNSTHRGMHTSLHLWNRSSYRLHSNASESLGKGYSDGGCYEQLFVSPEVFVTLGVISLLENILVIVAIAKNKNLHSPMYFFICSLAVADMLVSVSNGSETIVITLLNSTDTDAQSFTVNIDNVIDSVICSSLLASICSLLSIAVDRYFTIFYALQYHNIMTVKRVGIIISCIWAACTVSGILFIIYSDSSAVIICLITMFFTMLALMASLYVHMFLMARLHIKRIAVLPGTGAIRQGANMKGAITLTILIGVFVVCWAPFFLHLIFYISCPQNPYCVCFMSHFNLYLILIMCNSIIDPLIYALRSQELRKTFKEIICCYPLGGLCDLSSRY
Sequence of Genome polyprotein (P29990 2492-3391 limits assumed): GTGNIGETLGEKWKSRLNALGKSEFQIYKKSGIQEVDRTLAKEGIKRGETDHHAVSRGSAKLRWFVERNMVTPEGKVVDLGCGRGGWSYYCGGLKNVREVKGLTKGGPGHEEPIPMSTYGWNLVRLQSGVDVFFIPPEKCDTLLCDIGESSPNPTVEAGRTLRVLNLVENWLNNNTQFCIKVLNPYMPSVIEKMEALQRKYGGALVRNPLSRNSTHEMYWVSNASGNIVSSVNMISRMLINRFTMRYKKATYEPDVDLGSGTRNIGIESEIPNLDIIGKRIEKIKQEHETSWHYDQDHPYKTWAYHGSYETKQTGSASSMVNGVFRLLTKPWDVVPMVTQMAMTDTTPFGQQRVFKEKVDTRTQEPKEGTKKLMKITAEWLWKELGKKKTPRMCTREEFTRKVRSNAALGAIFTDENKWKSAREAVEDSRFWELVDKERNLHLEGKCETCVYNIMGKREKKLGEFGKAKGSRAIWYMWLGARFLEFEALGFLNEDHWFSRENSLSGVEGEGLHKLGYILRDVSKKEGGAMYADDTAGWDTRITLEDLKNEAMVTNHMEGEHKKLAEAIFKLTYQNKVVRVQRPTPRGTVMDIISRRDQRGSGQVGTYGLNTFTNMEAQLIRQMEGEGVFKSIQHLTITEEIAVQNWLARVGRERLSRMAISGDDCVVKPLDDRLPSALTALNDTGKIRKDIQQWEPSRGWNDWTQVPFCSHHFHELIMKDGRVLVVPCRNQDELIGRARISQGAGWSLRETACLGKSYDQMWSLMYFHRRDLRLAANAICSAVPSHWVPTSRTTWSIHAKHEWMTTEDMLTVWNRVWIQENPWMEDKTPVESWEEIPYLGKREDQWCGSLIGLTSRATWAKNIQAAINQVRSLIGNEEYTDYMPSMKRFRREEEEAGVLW
Sequence of Cytochrome P450 3A4 (P08684 whole entry): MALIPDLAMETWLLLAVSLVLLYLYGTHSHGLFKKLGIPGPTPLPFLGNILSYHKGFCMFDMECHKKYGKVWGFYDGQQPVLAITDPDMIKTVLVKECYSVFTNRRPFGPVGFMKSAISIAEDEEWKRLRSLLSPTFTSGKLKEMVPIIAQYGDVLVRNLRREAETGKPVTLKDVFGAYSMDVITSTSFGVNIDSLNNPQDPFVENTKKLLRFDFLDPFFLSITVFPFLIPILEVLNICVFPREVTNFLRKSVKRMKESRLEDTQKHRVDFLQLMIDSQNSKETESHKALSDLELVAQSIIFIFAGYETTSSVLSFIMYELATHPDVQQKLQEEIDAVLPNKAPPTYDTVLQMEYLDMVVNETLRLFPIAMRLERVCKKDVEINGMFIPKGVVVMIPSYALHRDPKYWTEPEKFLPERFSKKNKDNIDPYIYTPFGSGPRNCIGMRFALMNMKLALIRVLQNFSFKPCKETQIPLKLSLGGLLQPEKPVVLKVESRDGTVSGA

With `CC(=O)Nc1cc(-c2ccccc2F)cn2c(-c3cccc(C(F)(F)F)c3)cnc12`, the EC50 at Melanocortin receptor 4 [1] was > 89.2 µM (inactive).
As for `CC1CC2(CCCCC2)N2C(=O)C(=O)c3cccc1c32` (configuration not stated), at Cytochrome P450 3A4, the AC50 was 25.1 µM (inconclusive). Besides, in experiment [2], the IC50 is 24.4 µM (active).
Regarding `NC(=O)C1=C(c2ccccc2)c2ccccc2C1=O`, in [3], the EC50 was 11.9 µM (active). The CC50 with Vero was 32.1 µM (active). Further, the IC50 is > 79 µM (inactive) with H9c2 and 59.5 µM (active) on Genome polyprotein.
Take `COc1ccc2c(c1)Cc1sc(NC(=O)c3ccccc3)nc1-2`: the IC50 at Protein skinhead-1 is > 100 µM (inactive); in [2], 27.5 µM (active). Also, the EC50 in experiment [4] is 31.3 µM (active); in [5], 42.4 µM (active); in the experiment on H4 it was 4.58 µM (active).
As for `CCCc1cc(C(N)=S)ccn1` [PROTIONAMIDE], in [6], the CC50 is > 100 µM (active).
`COc1cccc2c1C(=O)C=C(C)C2=O`: the AC50 in experiment [7] was 7.83 µM (active); with A-375 it was 37.8 µM (active). The IC50 in experiment [2] is 14.4 µM (active).
Regarding `CC1=C(CO)C(=O)OC([C@@H](C)C2CC[C@H]3C4C[C@H]5O[C@]56[C@@H](O)C=CC(=O)[C@]6(C)C4CC[C@]23C)C1` (some centres not stated), the AC50 in experiment [8] was 1.99 µM (active); in experiment [9], 0.982 µM (active); in experiment [11], 9.71 µM (active); in [12], 0.674 µM (active); with INS1, 7.49 µM (active). Moreover, the IC50 in experiment [10] was > 64.6 µM (inactive); at Melanocortin receptor 4 [13], > 64.6 µM (inactive); in experiment [14], 2.65 µM (active). Also, the EC50 (in [4]; in [5]; with H4) was > 120 µM (not active) throughout.

One may read the AC50 as the midpoint of the concentration-response curve, whichever way the signal moves. A word on the IC50: it is the midpoint of a concentration-inhibition curve. By CC50 is commonly meant the concentration at which the toxic effect on the cells reaches its halfway point.
